Laboratory results published in patent publication US11261201B2 (priority 2018, dated 2022).
Converted amounts (≈) assume the structure as drawn. Where a name gives a salt, the structure may show the parent alone. Read-outs that look alike come from different tables or passages of the source.

How the values were obtained:
H37RvMA = assay: Tuberculosis Alamar Blue/Resazurin assay (MIC); type: cell-based; settings: read-out: WT H37Rv MTB Activity
A. baumannii = assay: Gram negative MIC protocol (OD600, LB, 24 h); settings: for MIC: Acinetobacter baumannii
Method: (§1) Overnight bacterial cultures were grown in LB with no added antibiotics at 37° C. with shaking. A 1:1000 dilution of these cultures into LB was exposed to concentration gradients of compounds in 96-well plates (100 μL per well assay volume). Resulting plates were incubated at 37° C. for 24 h without shaking, and OD600 was measured at the end of the incubation. MICs were determined as the lowest concentrations at which OD600 remained at baseline.

E. coli = assay: Gram negative MIC protocol (OD600, LB, 24 h); settings: for MIC: Escherichia coli
Method: as §1

[1] = Mycobacterium tuberculosis, H37RV, WT H37Rv MTB
[2] = read-out: MIC A. baumannii LB Media, A. baumannii, LB media, 24 h, OD600
[3] = read-out: MIC E. coli delta-TolC LB Media, E. coli delta-TolC strain, LB media, 24 h, OD600
[4] = read-out: MIC WT E. coli LB Media, wild-type E. coli, LB media, 24 h, OD600
[5] = read-out: MIC E. coli delta-TolC LB Media, E. coli delta-TolC, LB media, OD600
[6] = read-out: MIC WT E. coli LB Media, WT E. coli, LB media, OD600
[7] = Mycobacterium tuberculosis, H37RV
[8] = read-out: MIC A. baumannii LB Media

Row | Structure (SMILES) | MIC (H37RvMA; [1]) [µM] | MIC (A. baumannii; [2]) [µM] | MIC (E. coli; [3]) [µM] | MIC (E. coli; [4]) [µM] | MIC (E. coli; [5]) [µM] | MIC (E. coli; [6]) [µM] | other results
1 | COc1ccc(CNC(=O)COc2ccccc2CNC(C)CC2CCCCC2)cc1 (centres unmarked) [B303] | 91 (≈ 38.6 µg/mL) | > 150 | 7 (≈ 2.97 µg/mL) | > 150 |  |  | 
2 | COC1(CC(C)NCc2ccccc2)CCC1 (centres unmarked) [B52] | > 150 | > 150 |  |  | > 150 | > 150 | 
3 | O=C(O)C1CCCCC1CCNCc1ccccc1 (centres unmarked) [B184] | > 150 | > 300 |  |  | > 300 | > 300 | 
4 | CC(CC1CCCCC1)NCc1ccccc1OCCOCC(F)(F)F (centres unmarked) [B305] | 150 (≈ 56 µg/mL) | 91 (≈ 34 µg/mL) | 3 (≈ 1.12 µg/mL) | > 150 |  |  | 
5 | CCNS(=O)(=O)Cc1ccccc1CNC(C)CC1CCCCC1 (centres unmarked) [B446, 1-(2-(((1-cyclohexylpropan-2-yl)amino)methyl)phenyl)-N-ethylmethanesulfonamide] | > 150 | > 150 |  |  | 7 (≈ 2.47 µg/mL) | 91 (≈ 32.1 µg/mL) | 
6 | OB(O)Cc1ccccc1CNCCC1CCCCC1 [B376, 2-((2-cyclohexylethylamino)methyl)benzylboronic acid] | > 150 | > 150 | 91 (≈ 25 µg/mL) | 150 (≈ 41.3 µg/mL) |  |  | 
7 | CC(CC1CCCCC1)N1Cc2ccccc2CC1=O (centres unmarked) [B412, 2-(1-cyclohexylpropan-2-yl)-1,4-dihydroisoquinolin-3(2H)-one] | 7.4 (≈ 2.01 µg/mL) | > 150 |  |  | 55 (≈ 14.9 µg/mL) | > 150 | 
8 | CC(CC1CCCCC1)NCc1ccccc1OCCC(N)=O (centres unmarked) [B285] | > 150 | > 150 | 55 (≈ 17.5 µg/mL) | 91 (≈ 29 µg/mL) |  |  | 
9 | CC(CC1CCCCC1)NCc1ccccc1OC1CCC(F)(F)CC1 (centres unmarked) [B396, 1-cyclohexyl-N-(2-((4,4-difluorocyclohexyl)oxy)benzyl)propan-2-amine] | 55.1 (≈ 20.1 µg/mL) | 150 (≈ 54.8 µg/mL) | 3 (≈ 1.1 µg/mL) | 150 (≈ 54.8 µg/mL) |  |  | 
10 | CC(NCCC1=CCCCC1)c1ccccc1 (centres unmarked) [B36] | > 150 | > 150 |  |  | > 150 | > 150 | 
11 | c1ccc(CNCCc2ccc3c(c2)OCO3)cc1 [B154] |  |  |  |  | > 150 | > 150 | MIC (H37RvMA; [7]): > 150 µM; MIC (A. baumannii; [8]): > 150 µM
12 | CC(CC1CCCCC1)NCc1ccccc1OCC(=O)NC1CC1 (centres unmarked) [B280] | > 150 | 150 (≈ 51.7 µg/mL) | 12 (≈ 4.13 µg/mL) | 150 (≈ 51.7 µg/mL) |  |  | 
13 | O=C1NCC(COc2ccccc2CNCCC2=CCCCC2)O1 (centres unmarked) [B402] | > 150 | > 150 |  |  | 33 (≈ 10.9 µg/mL) | 150 (≈ 49.6 µg/mL) | 
14 | CC(CC1CCCCC1)NCc1ccccc1OC(F)(F)F (centres unmarked) [B321] | > 150 | > 150 | 55 (≈ 17.3 µg/mL) | > 150 |  |  | 
15 | c1ccc(CNCCc2cccc3cccnc23)cc1 [B42] | > 150 | > 150 |  |  | > 150 | > 150 | 
16 | CC(CC1CCCCC1)NCc1ccccc1OCC(=O)N(C)C (centres unmarked) [B320] | > 150 | > 150 | 20 (≈ 6.65 µg/mL) | > 150 |  |  | 
17 | CC(NCc1ccccc1)C1CCCCC1 (centres unmarked) [B134] | > 150 | > 150 |  |  | > 150 | 120 (≈ 26.1 µg/mL) | 
18 | CC(C)(CN1CCOCC1)NCc1ccccc1 [B67] | > 150 | > 150 |  |  | > 150 | > 150 | 
19 | Cl.c1ccc(CNCC2CCCCC2)cc1 [B17] |  |  |  |  |  |  | MIC (H37RvMA; WT H37Rv MTB): >150 µM; MIC A. baumannii LB Media (A. baumannii; A. baumannii, LB media, OD600): >150 µM; MIC E. coli delta-TolC LB Media (E. coli; E. coli delta-TolC, LB media, OD600): >150 µM; MIC WT E. coli LB Media (E. coli; WT E. coli, LB media, OD600): >150 µM

Row | Structure (SMILES) | MIC (H37RvMA; [1]) [µM] | MIC (A. baumannii; [2]) [µM] | MIC (E. coli; [3]) [µM] | MIC (E. coli; [4]) [µM] | MIC (E. coli; [5]) [µM] | MIC (E. coli; [6]) [µM] | other results
20 | COCCOCCOc1ccccc1CNC(C)CC1CCCCC1 (centres unmarked) [B301] | > 150 | > 150 | 12 (≈ 4.19 µg/mL) | > 150 |  |  | 
21 | c1ccc(CNCCC23CC4CC(CC(C4)C2)C3)cc1 [B198] |  | 170 (≈ 45.8 µg/mL) | 170 (≈ 45.8 µg/mL) | > 300 |  |  | MIC (H37RvMA; WT H37Rv MTB): 91 µM (≈ 24.5 µg/mL)
22 | Cc1cccc(CNCCC2=CCCCC2)c1 [B11, 2-(cyclohex-1-en-1-yl)-N-(3-methylbenzyl)ethan-1-amine] | > 150 | > 150 |  |  | > 150 | > 150 | 
23 | CCC(CNCc1ccccc1)N1CCc2ccccc2C1 (centres unmarked) [B131] | > 150 | > 150 |  |  | > 150 | > 150 | 
24 | COc1cccc(OCCOc2ccccc2CNC(C)CC2CCCCC2)c1 (centres unmarked) [B266] | 55 (≈ 21.9 µg/mL) | 33 (≈ 13.1 µg/mL) | 2 (≈ 0.795 µg/mL) | 150 (≈ 59.6 µg/mL) |  |  | 
25 | CNS(=O)(=O)Cc1ccccc1CNC(C)CC1CCCCC1 (centres unmarked) [B445, 1-(2-(((1-cyclohexylpropan-2-yl)amino)methyl)phenyl)-N-methylmethanesulfonamide] | > 150 | 150 (≈ 50.8 µg/mL) |  |  | 4 (≈ 1.35 µg/mL) | 55 (≈ 18.6 µg/mL) | 
26 | c1ccc(CCNCc2ccccc2)cc1 [B181] |  |  |  |  | > 300 | > 300 | MIC (H37RvMA; [7]): > 150 µM; MIC (A. baumannii; [8]): > 300 µM
27 | CC(CC1CCCCC1)N1Cc2ccccc2OC1=O (centres unmarked) [B426, 3-(1-cyclohexylpropan-2-yl)-3,4-dihydro-2H-benzo[e][1,3]oxazin-2-one] | 1.7 (≈ 0.465 µg/mL) | > 150 |  |  | 55 (≈ 15 µg/mL) | > 150 | 
28 | CC(C)C[C@H](N)C(=O)NS(=O)(=O)Cc1ccccc1CNC(C)CC1CCCCC1 (stereo partly drawn) [B428, (2S)-2-amino-N-((2-(((1-cyclohexylpropan-2-yl)amino)methyl)benzyl)sulfonyl)-4-methylpentanamide dihydrochloride] | > 150 | > 150 |  |  | 55 | > 150 | 
29 | C[C@@H](CC1=CCCCC1)NCc1ccccc1 [B171] |  |  |  |  | 19 (≈ 4.36 µg/mL) | 41 (≈ 9.4 µg/mL) | MIC (H37RvMA; [7]): > 150 µM; MIC (A. baumannii; [8]): 110 µM (≈ 25.2 µg/mL)
30 | CC(CC1CCCCC1)NCc1ccccc1OCC(C)(C)O (centres unmarked) [B343] | > 150 | 150 (≈ 47.9 µg/mL) | 4 (≈ 1.28 µg/mL) | 150 (≈ 47.9 µg/mL) |  |  | 
31 | CC(CC1CCCCC1)NCc1ccccc1CS(=O)(=O)NCC(=O)O (centres unmarked) [B448, ((2-(((1-cyclohexylpropan-2-yl)amino)methyl)benzyl)sulfonyl)glycine] | > 150 | > 150 |  |  | > 150 | > 150 | 
32 | CCc1cnc(COc2ccccc2CNC(C)CC2CCCCC2)o1 (centres unmarked) [B268] | 91 (≈ 32.4 µg/mL) | > 150 | 7 (≈ 2.5 µg/mL) | > 150 |  |  | 
33 | CCc1noc(COc2ccccc2CNC(C)CC2CCCCC2)n1 (centres unmarked) [B324] | > 150 | > 150 | 7 (≈ 2.5 µg/mL) | > 150 |  |  | 
34 | CC(CC1CCCCC1)NCc1ccccc1CC(N)C(=O)O (centres unmarked) [B466, 2-amino-3-(2-(((1-cyclohexylpropan-2-yl)amino)methyl)phenyl)propanoic acid] | > 55 | > 150 |  |  | > 150 | > 150 | 
35 | CC1CCCC(CCN2Cc3ccccc3CC2=O)C1 (centres unmarked) [B464, 2-(2-(3-methylcyclohexyl)ethyl)-1,4-dihydroisoquinolin-3(2H)-one] | 2 (≈ 0.543 µg/mL) | > 150 |  |  | 90 (≈ 24.4 µg/mL) | > 150 | 
36 | CC(CC1CCCCC1)NCc1ccccc1CS(=O)(=O)NCC1CCCO1 (centres unmarked) [B433, 1-(2-(((1-cyclohexylpropan-2-yl)amino)methyl)phenyl)-N-((tetrahydrofuran-2-yl)methyl)methanesulfonamide] | > 150 | 150 (≈ 61.3 µg/mL) |  |  | 3 (≈ 1.23 µg/mL) | 150 (≈ 61.3 µg/mL) | 
37 | CC(CC1CCCCC1)NCc1ccccc1OCc1ccccc1Cl (centres unmarked) [B382] | 12.2 (≈ 4.54 µg/mL) | 55 (≈ 20.5 µg/mL) | 3 (≈ 1.12 µg/mL) | 55 (≈ 20.5 µg/mL) |  |  | 
38 | c1ccc(CNCCN2CCCCC2)cc1 [B223] | > 150 | > 300 | > 150 | > 300 |  |  | 
